# Reference: US20250051327A1, “MALT-1 MODULATORS” (EXSCIENTIA AI LIMITED, priority 2020, published 2025)
# Read-outs that look alike come from different tables or passages of the source.
# Columns and labels:
# [1] = molecular target: Recombinant human MALT-1 (amino acids 340-824) (Homo sapiens (Human), UniProt Q9UDY8); assay: MALT-1 inhibition assay (fluorogenic substrate Ac-LRSR-Rh110-DP); format: biochemical; settings: recombinant human MALT-1, substrate Ac-LRSR-Rh110-DP
# How it was run: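 MALT-1 at 3 nM final was reacted with 10 μM Ac-LRSR-Rh110-DP, with substrate addition starting the reaction. Incubation ran 60 minutes at 25° C in the dark. Percent inhibition from fluorescence across doses was fitted to a 4-parameter logistic to give IC50.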
# [2] = system: IL-2 secretion by human effector memory T cells (TEM); assay: Effector memory T cells IL-2 release assay; format: cell-based; settings: human CD4+ effector memory T cells, CD3/CD28 bead stimulation, 24 h, read-out: CD4TC IL2 IC50
# How it was run: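 Human CD4+ effector memory T cells from healthy-donor buffy coats were stimulated with anti-CD3/CD28 Dynabeads and exposed to 10 semi-log compound doses (0.1% DMSO) for 24 h at 37 °C. Supernatant IL-2 was measured by HTRF, and IC50 came from a 4-parameter logistic fit to maximal IL-2. Viability was checked by flow cytometry.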
# Recombinant human MALT-1 (amino acids 340-824), sequence (Q9UDY8 340-824): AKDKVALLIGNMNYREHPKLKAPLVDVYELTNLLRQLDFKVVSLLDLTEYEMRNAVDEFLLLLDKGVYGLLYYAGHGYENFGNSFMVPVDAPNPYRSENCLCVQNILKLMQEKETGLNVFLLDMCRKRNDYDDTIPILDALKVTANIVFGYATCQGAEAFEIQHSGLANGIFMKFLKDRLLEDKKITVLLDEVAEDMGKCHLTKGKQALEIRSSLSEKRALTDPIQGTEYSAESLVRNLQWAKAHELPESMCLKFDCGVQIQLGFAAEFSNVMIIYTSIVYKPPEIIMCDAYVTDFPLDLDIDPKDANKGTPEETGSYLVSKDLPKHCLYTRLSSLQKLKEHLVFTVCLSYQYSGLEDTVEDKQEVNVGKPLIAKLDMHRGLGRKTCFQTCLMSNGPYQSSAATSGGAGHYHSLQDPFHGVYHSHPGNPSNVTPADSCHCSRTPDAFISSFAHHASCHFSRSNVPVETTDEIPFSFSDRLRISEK
Structure (SMILES),IC50 [1],IC50 ([2]; T-cell),IC50 [2]
"COC(C)c1c(Nc2ccc([C@H](N(C)C(=O)C3CCS(=O)(=O)CC3)C(F)(F)F)cn2)cnc2ccc(Cl)nc12 (stereo in doubt) [CPD0019501, N-[(1S)-1-[6-({6-chloro-4-[(1 rel S)-1-methoxyethyl]-1,5-naphthyridin-3-yl}amino)pyridin-3-yl]-2,2,2-trifluoroethyl]-N-methyl-1,1-dioxo-1λ^6-thiane-4-carboxamide]",348 nM,,380 nM
"Cc1cn2ncc(Nc3ccc([C@H](N(C)C(=O)C4CCS(=O)(=O)CC4)C(F)(F)F)cc3)cc2n1 [CPD0018617, N-methyl-1,1-dioxo-N-[(1S)-2,2,2-trifluoro-1-[4-({2-methylimidazo[1,2-b]pyridazin-7-yl}amino)phenyl]ethyl]-1λ^6-thiane-4-carboxamide]",598 nM,386 nM,
"COc1ccc2ncc(Nc3ccc([C@H](N(C)C(=O)C4CCS(=O)(=O)CC4)C(F)(F)F)cc3)cc2n1 [CPD0018619, N-methyl-1,1-dioxo-N-[(1S)-2,2,2-trifluoro-1-[4-[(6-methoxy-1,5-naphthyridin-3-yl)amino]phenyl]ethyl]thiane-4-carboxamide]",361 nM,190 nM,
"COc1ccc2ncc(Nc3ccc([C@H](N(C)C(=O)C4CCS(=O)(=O)CC4)C(F)(F)F)cc3)c(C(C)OC)c2n1 (stereo partly drawn) [CPD0019079, N-methyl-1,1-dioxo-N-[(1S)-2,2,2-trifluoro-1-(4-{[6-methoxy-4-(1-methoxyethyl)-1,5-naphthyridin-3-yl]amino}phenyl)ethyl]-1λ^6-thiane-4-carboxamide]",147 nM,102 nM,
O=C(Nc1cnc(-n2nccn2)c(Cl)c1)c1cnn(-c2cccc3ncccc23)c1NCCCCl [CPD0019183],464 nM,10000 nM,
"CN(C(=O)C1CCS(=O)(=O)CC1)[C@@H](c1ccc(N2CCCc3c2cnc2cc(Cl)nn32)cc1)C(F)(F)F [CPD0019184, N-[(1S)-1-(4-{4-chloro-2,3,7,10-tetraazatricyclo[7.4.0.0^2,6]trideca-1(9),3,5,7-tetraen-10-yl}phenyl)-2,2,2-trifluoroethyl]-N-methyl-1,1-dioxo-1λ^6-thiane-4-carboxamide]",59 nM,68 nM,
"CC(C)C(=O)N(C)[C@@H](c1ccc(N2CCCc3c2cnc2cc(Cl)nn32)cc1)C(F)(F)F [CPD0019340, N-[(1S)-1-(4-{4-chloro-2,3,7,10-tetraazatricyclo[7.4.0.0^2,6]trideca-1(9),3,5,7-tetraen-10-yl}phenyl)-2,2,2-trifluoroethyl]-N,2-dimethylpropanamide]",130 nM,139 nM,
"CN(C(=O)CO)[C@@H](c1ccc(N2CCCc3c2cnc2cc(Cl)nn32)cc1)C(F)(F)F [CPD0019341, N-[(1S)-1-[4-(4-chloro-2,3,7,10-tetrazatricyclo[7.4.0.0^2,6]trideca-1(9),3,5,7-tetraen-10-yl)phenyl]-2,2,2-trifluoro-ethyl]-2-hydroxy-N-methyl-acetamide]",200 nM,104 nM,
"CN(C(=O)CC#N)[C@@H](c1ccc(N2CCCc3c2cnc2cc(Cl)nn32)cc1)C(F)(F)F [CPD0019342, N-[(1S)-1-(4-{4-chloro-2,3,7,10-tetraazatricyclo[7.4.0.0^2,6]trideca-1(9),3,5,7-tetraen-10-yl}phenyl)-2,2,2-trifluoroethyl]-2-cyano-N-methylacetamide]",170 nM,96 nM,
"CN(C(=O)c1cncn1C)[C@@H](c1ccc(N2CCCc3c2cnc2cc(Cl)nn32)cc1)C(F)(F)F [CPD0019344, N-[(1S)-1-(4-{4-chloro-2,3,7,10-tetraazatricyclo[7.4.0.0^2,6]trideca-1(9),3,5,7-tetraen-10-yl}phenyl)-2,2,2-trifluoroethyl]-N,1-dimethyl-1H-imidazole-5-carboxamide]",213 nM,295 nM,
"Cc1ncc(C(=O)N(C)[C@@H](c2ccc(N3CCCc4c3cnc3cc(Cl)nn43)cc2)C(F)(F)F)n1C [CPD0019346, N-[(1S)-1-(4-{4-chloro-2,3,7,10-tetraazatricyclo[7.4.0.0^2,6]trideca-1(9),3,5,7-tetraen-10-yl}phenyl)-2,2,2-trifluoroethyl]-N,1,2-trimethyl-1H-imidazole-5-carboxamide]",535 nM,720 nM,

# Second part, led by results:
IC50 [1],IC50 ([2]; T-cell),Structure (SMILES),IC50 [2]
64 nM,40 nM,"COc1ccc2ncc(Nc3ccc([C@H](N(C)C(=O)[C@H]4CCN(C(=O)CO)C4)C(F)(F)F)cc3)c([C@H](C)OC)c2n1 (relative stereo) [CPD0075882, (3 rel S)-1-(2-hydroxyacetyl)-N-methyl-N-[(1S)-2,2,2-trifluoro-1-[4-[[6-methoxy-4-[(1 rel S)-1-methoxyethyl]-1,5-naphthyridin-3-yl]amino]phenyl]ethyl]pyrrolidine-3-carboxamide]",
52 nM,47 nM,"COc1ccc2ncc(Nc3ccc([C@H](N(C)C(=O)[C@@H]4CCN(C(=O)CO)C4)C(F)(F)F)cc3)c([C@H](C)OC)c2n1 (relative stereo) [CPD0075883, (3 rel R)-1-(2-hydroxyacetyl)-N-methyl-N-[(1S)-2,2,2-trifluoro-1-[4-[[6-methoxy-4-[(1 rel S-1-methoxyethyl]-1,5-naphthyridin-3-yl]amino]phenyl]ethyl]pyrrolidine-3-carboxamide]",
126 nM,158 nM,"COc1ccc2ncc(Nc3ccc([C@@H](N(C)C(=O)[C@H]4CC[S@@](=N)(=O)CC4)C(F)(F)F)cc3)c([C@H](C)OC)c2n1 (relative stereo) [CPD0077186, (1 rel-r,4rel-s)-1-imino-N-methyl-1-oxo-N-[(1R)-2,2,2-trifluoro-1-[4-({6-methoxy-4-[(1 rel-S)-1-methoxyethyl]-1,5-naphthyridin-3-yl}amino)phenyl]ethyl]-1λ^6-thiane-4-carboxamide]",
117 nM,209 nM,"COc1ccc2ncc(Nc3ccc([C@@H](N(C)C(=O)[C@H]4CC[S@](=N)(=O)CC4)C(F)(F)F)cc3)c([C@H](C)OC)c2n1 (relative stereo) [CPD0077187, (1 rel-s,4rel-s)-1-imino-N-methyl-1-oxo-N-[(1R)-2,2,2-trifluoro-1-[4-({6-methoxy-4-[(1 rel-S)-1-methoxyethyl]-1,5-naphthyridin-3-yl}amino)phenyl]ethyl]-1λ^6-thiane-4-carboxamide]",
68 nM,82 nM,"CC1CCN(c2ccc([C@H](N(C)C(=O)C3CCS(=O)(=O)CC3)C(F)(F)F)cc2)c2cnc3cc(Cl)nn3c21 (single isomer, unassigned) [CPD0021811]",
46 nM,57 nM,"CN(C(=O)[C@H]1CNC(=O)O1)[C@@H](c1ccc(N2CCCc3c2cnc2cc(Cl)nn32)cc1)C(F)(F)F (single isomer, unassigned) [CPD0075576]",
271 nM,894 nM,"COc1cncc2c1CCCN2c1ccc(C(N(C)C(=O)C2CCS(=O)(=O)CC2)C(F)(F)F)cc1 (stereo in doubt) [CPD0021939, N-methyl-1,1-dioxo-N-[(1S)-2,2,2-trifluoro-1-[4-(5-methoxy-3,4-dihydro-2H-1,7-naphthyridin-1-yl)phenyl]ethyl]thiane-4-carboxamide]",
64 nM,36 nM,"COc1ccc2ncc(Nc3ccc([C@H](N(C)C(=O)[C@H]4CC[S@@](=N)(=O)CC4)C(F)(F)F)cc3)c([C@H](C)OC)c2n1 (stereo in doubt) [CPD0073129, (1 rel-s,4rel-s)-1-imino-N-methyl-1-oxo-N-[(1S)-2,2,2-trifluoro-1-[4-({6-methoxy-4-[(1 rel-S)-1-methoxyethyl]-1,5-naphthyridin-3-yl}amino)phenyl]ethyl]-1λ^6-thiane-4-carboxamide]",
61 nM,24 nM,"COc1ccc2ncc(Nc3ccc([C@H](N(C)C(=O)[C@H]4CC[S@](=N)(=O)CC4)C(F)(F)F)cc3)c([C@H](C)OC)c2n1 (stereo in doubt) [CPD0073130, (1 rel-r,4rel-r)-1-imino-N-methyl-1-oxo-N-[(1S)-2,2,2-trifluoro-1-[4-({6-methoxy-4-[(1 rel-S)-1-methoxyethyl]-1,5-naphthyridin-3-yl}amino)phenyl]ethyl]-1λ^6-thiane-4-carboxamide]",
53 nM,250 nM,"CN(C(=O)[C@H]1CNC(=O)C1)[C@@H](c1ccc(N2CCCc3c2cnc2cc(Cl)nn32)cc1)C(F)(F)F (stereo in doubt) [CPD0073564, (3rel-R)—N-[(1S)-1-(4-{4-chloro-2,3,7,10-tetraazatricyclo[7.4.0.0^2,6]trideca-1(9),3,5,7-tetraen-10-v}phenyl)-2,2,2-trifluoroethyl]-N-methyl-5-oxopyrrolidine-3-carboxamide]",
43 nM,101 nM,"CN(C(=O)[C@@H]1CNC(=O)C1)[C@@H](c1ccc(N2CCCc3c2cnc2cc(Cl)nn32)cc1)C(F)(F)F (stereo in doubt) [CPD0073565, (3rel-S)—N-[(1S)-1-(4-{4-chloro-2,3,7,10-tetraazatricyclo[7.4.0.0^2,6]trideca-1(9),3,5,7-tetraen-10-yl}phenyl)-2,2,2-trifluoroethyl]-N-methyl-5-oxopyrrolidine-3-carboxamide]",
244 nM,132 nM,"Cc1nn(C)cc1C(=O)N(C)[C@@H](c1ccc(N2CCCc3c2cnc2cc(Cl)nn32)cc1)C(F)(F)F [CPD0019347, N-[(1S)-1-(4-{4-chloro-2,3,7,10-tetraazatricyclo[7.4.0.0^2,6]trideca-1(9),3,5,7-tetraen-10-yl}phenyl)-2,2,2-trifluoroethyl]-N,1,3-trimethyl-1H-pyrazole-4-carboxamide]",
